Where “and” joins values, the source holds several entries; their conditions need not be identical. Equal entries are not always repeated.

One series deals with PEO1 cells. Description: In vitro [^18F]11 uptake in PEO1 cells. In kind it is cell-based, human. The settings on record: 50 μg/mL CDDP, 60 min uptake. The text has this:
The human ovarian carcinoma cell lines PEO1/4 were established and characterised as described in Wolf C. R. et al.^22 and Langdon S. P. et al^23. Briefly, PEO1/4 cells were derived from the malignant ascites of a patient with a recurrent mucinous ovarian adenocarcinoma, before (PEO1) and after (PEO4) the onset of a clinical resistance to cisplatin chemotherapy in this patient. The radiation-induced murine fibrosarcoma (RIF-1) tumour cell line was originally characterised by Twentyman P. R. et al.^20. The LNM35 tumour cells are a highly lymphogenous metastatic subline of the human large pulmonary carcinoma NCI-H460 cell line, as described in Kozaki K. et al.^24. […]
Cells were plated in triplicate in 12-well plates 2 or 3 days prior to the experiments and treated with the antineoplastic platinum-derived drug Cisplatin, 5-FU, the protein synthesis inhibitor cycloheximide (CHX) or the topoisomerase inhibitor etoposide (VP-16) (Sigma, UK) or corresponding vehicle at the indicated concentration and time. […] 260 μL of each sample were transferred in counting tubes and Fluorine-18 radioactivity was immediately determined using a Packard Cobra II gamma counter (Perkin Elmer, UK). […] BCA Protein assay (Pierce, UK) was performed for all samples and datas are normalized and expressed as CCPMA or RLU (Relative Light Unit)/mg of protein.

Series [1] in a line: In vivo metabolism studies, radio-HPLC of plasma, liver and urine. Set-up: species or system C3H/hej mice. The conditions noted are these: for Recovery (plasma): extraction efficiency; for Parent (liver) / Recovery (liver): individual results from two samples. As to the method: [^18F]11 was injected intravenously into tumor-bearing mice and its tissue distribution was measured in selected tissues at 2, 15 and 60 min after injection. […] Furthermore, the in vivo metabolic stability of the radiotracer was determined from plasma and liver samples and, for [^18F]11, in urine samples.
In vivo metabolism studies were also performed in C3H/hej mice. […] Plasma, liver and urine samples were snap-frozen in liquid nitrogen and kept in pre-weighed scintillation counting tubes on dry ice prior to analysis.
Immediately prior to extraction the samples were thawed and placed on ice. For extraction, ice cold acetonitrile (1.5 mL) was added to plasma (0.2 mL); S9 incubation samples (3 mL) containing acetonitrile were also analysed. Each mixture was centrifuged (15493×g, 4° C., 3 min) and the resulting supernatant was evaporated to dryness under vacuum at 40° C. using a rotary evaporator. Liver samples were homogenized with ice cold acetonitrile (1.5 mL) using an IKA Ultra-Turrax T-25 homogeniser prior to centrifugation. The residues were then re-suspended in HPLC mobile phase (1.2 mL) and filtered through a Minisart hydrophilic syringe filter (0.2 μm) (Sartorius, Goettingen, Germany). Urine samples were diluted with HPLC mobile phase, filtered as above. The samples (1 mL) were then analyzed by radio-HPLC on an Agilent 1100 series HPLC system (Agilent Technologies, Stockport, UK) equipped with a γ-RAM Model 3 gamma-detector and the Laura software (IN/US Systems inc., Florida, USA).
The stationary phase comprised of a Waters μBondapak C18 reverse-phase column (300×7.8 mm). […] Furthermore, to assess the fraction of [^18F]9-derived radioactivity associated with the plasma and liver pellets after extraction versus that remaining in the HPLC injectate, the total volume of HPLC injectate was recorded and an aliquot (0.1 mL) removed for counting. The radioactivity in the 0.1 mL aliquot and the pellet were then analyzed by gamma counting (Packard Instruments).

Series [2] can be described thus: Log P determination, octanol-water partition coefficient. It is filed as physicochemical. The settings on record: read-out: Measured Log P. As to the method:
Lipophilicity was assessed by measuring the octanol-water partition coefficient using the method of Barthel et al^18. Briefly, [^18F]11 (˜180 μCi in 25 μL ethanol) was diluted to a final volume of 100 μL using water to give the stock solution. Aliquots of stock solution (10 μL) were added to water (490 μL) and octan-1-ol (Aldrich anhydrous grade) (500 μL). The solutions were then shaken vigorously for 10 min then centrifuged (13201 g, 20° C., 30 min) Following centrifugation portions (200 μL) of the water and octanol layers were carefully removed and placed analyzed on a Cobra II Auto-Gamma counter (Packard Instruments, Meriden, Conn., USA) and compared. The octanol-water partition coefficient was obtained by dividing the octanol containing radioactivity by the water containing radioactivity. Log P was determined to be 1.61, as indicated in footnote c of Table 1 above.

In the case of `O=C1C(=O)N(Cc2cn(CC[18F])nn2)c2ccc(S(=O)(=O)N3CCC[C@H]3COc3ccc(F)cc3F)cc21` [[^18F]11, (S)-1-((1-(2-Fluoroethyl)-1H-[1,2,3]-triazol-4-yl)methyl)-5-(2(2,4-difluorophenoxymethyl)-pyrrolidine-1-sulfonyl)isatin], the “[^18F]11 uptake in drug-treated cells compared to control” value in the series with PEO1 cells was “significantly increased”. Also, the “Recovery (plasma)” value worked out at 92.1 ± 3.4% in series [1] (2 min), 76.8 ± 5.2% in series [1] (15 min) and 50.9 ± 3.7% in series [1] (60 min). The “Parent (liver)” value was 35.7% and 43.4% in series [1] (2 min); 9.7% and 10.2% in series [1] (15 min); 27.0% and 29.7% in series [1] (60 min). Besides, the “Recovery (liver)” value in series [1] (2 min) is 79.7% and 86.9%; in series [1] (15 min), 67.1% and 68.9%; in series [1] (60 min) it was 46.4% and 65.2%. In addition, the “Parent (plasma)” value was 86.1 ± 3.7% in series [1] (2 min after i.v. injection, mice, radio-HPLC); 61.3 ± 5.9% in series [1] (15 min after i.v. injection, mice, radio-HPLC); 64.8 ± 7.0% in series [1] (60 min after i.v. injection, mice, radio-HPLC). Moreover, the “stability to metabolic degradation in vivo” value in series [1] (radio-HPLC, plasma and liver, mice) is “relatively more stable to metabolic degradation than [^125I]14”. For the same molecule, the logP at 10 min in series [2] was determined as 1.61.
